{"source": "patent US8389468B2", "about": "“Approach to the treatment of compartment syndrome” (Lantmannen AS-Faktor AB, priority 2006, dated 2013)", "key": {"[1]": {"test_system": "ICP after subarachnoidally deposited blood", "experiment": "Cerebral CS induced by autologous blood in the subarachnoid space, ICP", "format": "in vivo, Sprague-Dawley rats", "from_the_text": "A different type of cerebral CS was induced by the injection of […] whole blood in the subarachnoid space, a procedure known from the literature to result in the development of brain oedema and elevated ICP. Anaesthetized adult rats had 50-350 pL heparinzed autologous blood deposited in the subarachnoid space through a small hole drilled in the occipital bone or by injection into the cistern magna through the atlanto-occipital membrane. Holes drilled in a skull bone were eventually plugged with SuperBond@ glue. Such treatments with subarachnoidally deposited blood increased the ICP, inducing the development of a CS in a day or within a week, the exact time depending on the conditions and amount of blood deposited, in agreement with reports in the medical literature. In our experiments, injection of 0.2-0.3 mL autologous, heparinized blood in the cisterna magna in adult Sprague-Dawley rats resulted within 1-3 days in an elevation of the ICP to 13 to 30 mm Hg, as assessed with an implanted miniature pressure light guided probe (Samba System 3200 & Samba Preclin 420 sensor; Samba Sensors AB, Gruvgatan 6, SE 42130 V. Frolunda, Sweden). The ICP in normal adult rats, either non-treated or having had phosphate buffered saline (PBS) injected instead, was 6-9 mm Hg. […] This means that AF-16 is abolishing and, in case of already established cerebral CS, reducing its severity. The prompt response to AF-16 was decisive for the beneficial effect exerted by AF-16."}, "Staphylococcus areus": {"test_system": "Staphylococcus areus", "experiment": "Yellow pigment retained in cultured Staphylococcus areus", "format": "cell-based", "settings": "cultured over night or 2 days with AF-16, vs vehicle", "from_the_text": "Effects of AF was investigated in addition in prokaryotic cells, which are enclosed by a complex cell wall, thereby enabling the development of elevated pressure due to hampered membrane functions. That was done in bacteria, which synthesize and release a wide variety of substances that may cause damage to mammalian cells and thus to a body. Examples on such products are pigments, enzymes and toxins, which are transferred through the outer bacterial membrane to the extracellular environment. Inhibition of such membrane activities would reduce or even block the transfer and/or release of such pathogenic substances. In order to investigate if the peptide AF-16 affected the transfer of bacterial products from its synthesis in the bacterium to its environment, the following experiment was performed. The bacterium Staphylococcus areus, which synthesize a yellow pigment, was cultured over night or, occasionally for 2 days, in the presence or absence of the peptide AF-16. After a day or two was the bacterial culture rinsed, and then concentrated by centrifugation. The yellow pigment formed by the Staphylococcus areus was extracted from the permeabilized, pelleted bacteria with methanol and the light absorption determined by spectrometry."}, "HSV-1": {"test_system": "HSV-1", "experiment": "PCR of HSV-1 DNA copies in brain tissue, rats", "format": "in vivo, rat", "settings": "1 or 10 pg intranasally twice daily", "from_the_text": "FIG. 5: Quantitative PCR performed on brain tissues from rats infected in their right nostril with HSV-1. The brain specimens were obtained between 5 to 14 days after virus inoculation in the right nostril.\nThe improved survival of the HSV-1 infected rodents, as illustrated in example #2, could tentatively be due to that AF-16 blocked or at least reduced the proliferation of HSV1 virus in the infected brain. Therefore, adult rats were infected by having a solution of the herpes simplex virus type 1 (HSV-1; strain 2762, batch 041028; 1.7×10^7 PFU/mL) instilled in their right nostril. Half of the infected animals received 10 min later 25 pL (1 or 10 pg) of AF-16 in their right nostril, and had thereafter the same dose of AF-16 instilled every morning at 8 AM and every night at 6 PM until the experiment was terminated on day 6. The other groups of the HSV-1 infected rats received at the same time intervals 25 μL of the vehicle, PBS. The animals were closely watched for signs of general sickness and of behavioral and motor dysfunction. The animals were sacrificed by an overdose of anesthetics on day 6, the skull was then rapidly opened and the brain removed. […]"}, "HSV-1 infected rats [2]": {"test_system": "HSV-1 infected rats", "experiment": "Intracranial pressure (ICP) and neurological symptoms in HSV-1 infected rats, fibre optic pressure sensor", "format": "in vivo, rat", "description": "Adult rats were infected by having a solution of the Herpes Simplex virus type 1 (HSV-1; strain 2762, batch 041028; 1.7×10^7 PFU/mL; 25 pL) instilled in their right nostril. One group of animals (n=6) received 10 min after the infection 25 pL (10 pg) of AF-16 in their right nostril, and had thereafter the same dose of AF-16 instilled twice daily, every morning at 8 AM and every night at 6 PM, until the experiment was terminated on day 6. Additional HSV-1 infected rats (n=6) received in the nose at the same time intervals 25 pL of the vehicle, phosphate buffered saline (PBS). On day 6, the animals were anaesthetized, a surgical incision made through the skin on the head, and the skull bone freed from periostium and connective tissue. A hole with a diameter of about 1 mm was drilled through the right parietal bone and a miniature pressure sensor inserted 3-5 mm into the brain or into the lateral ventricle. A fibre optic pressure measure system (Samba System 3200 & Samba Preclin 420 sensor; Samba Sensors AB, V Frolunda, Sweden) with a very small diameter, ve. 0.4 mm, was used. […] HSV-1 infected rats treated with just the vehicle were measured to have as high pressures as up to 30-45 mm Hg (FIG. 2a), considerably affect the animals as reflected by symptoms of neurological dysfunction of increasing severity. In contrast, HSV-1 infected rats treated from the time of infection with AF-16 twice daily had almost normal ICP, 8-14 mm Hg (FIG. 2 b).\n(§1) Additional HSV-1 infected animals with distinctly overt symptoms were as well treated with 10 or 25 pg AF-16 intranasally, starting on day 5, 6 or 7, i.e. after having had the vehicle during the previous days. […] Thus, non of the acutely AF-16 treated rats had any persistent signs of deleterious ICP and thus no CS developed. […] That is seen in the mentioned figure (FIG. 5 a) as there is no red staining of the right half on the figure. However, treatment with 10 or 25 pg AF-16 intranasally turned the picture in HSV-1 infected rats as in the normal, non-infected ones. […] Thereby the outflow of CSF was restored and the ICP turned normal."}, "HSV-1 infected rats [3]": {"test_system": "HSV-1 infected rats", "experiment": "Outflow of CSF through cribriform lamina, Evans blue-albumin (EBA) infusion in HSV-1 infected rats", "format": "in vivo, rat", "settings": "10 or 25 pg intranasally", "from_the_text": "FIG. 6: Sections through the cribriform lamina, a bone structure separating the brain from the nose and through which the olfactory nerve pass. In the left figure (a) the dye-protein complex Evans blue-albumin (EBA) was infused into the subarachnoid space at day 5 after HSV-1 infection. The animal suffered from moderate encephalitis. Note that there is no red EBA in the cribriform lamina, nor in the nose, as the passage between the brain and nasal cavity is blocked. In the right figure (b) EBA was infused into the subarachnoid space of a non-infected, normal rat.\nas §1"}, "[4]": {"settings": "overt symptoms, 10 or 25 pg intranasally starting on day 5, 6 or 7"}}, "note": "“Also recorded” adds a separate entry of the source."}
{"sequence": "VCHSKTRSNPENNVGL [AF-16]", "values": [{"measurement": "ICP after treatment", "setting": "[1]; 25 pg AF-16 intranasally twice daily", "value": "almost normal levels"}, {"measurement": "brain, behavioral and motor function", "setting": "[1]; 25 pg AF-16 intranasally twice daily, vs vehicle", "value": "neither signs of impaired brain function nor any gross obvious impairment of behavioral or motor functions"}, {"measurement": "time for elevated ICP to turn to almost normal levels", "setting": "[1]; 25 pg AF-16 intranasally twice daily, elevated ICP 13 to 30 mm Hg, normal 6-9 mm Hg", "value": "1 to 2", "unit": "h"}, {"measurement": "extent and severity of brain damage", "setting": "[1]; vs vehicle PBS", "value": "reduced the extent and severity of the brain damage"}, {"measurement": "yellow pigment extracted from bacteria (light absorption), corrected for number of bacteria", "setting": "Staphylococcus areus", "value": "much more of the yellow pigment"}, {"measurement": "HSV-1 DNA copies in brain tissue vs vehicle", "setting": "HSV-1", "value": "no significant difference with regard to prevalence and distribution of HSV-1 DNA copies; also recorded: does not significantly affect the HSV-1 production"}, {"measurement": "intracranial pressure (ICP)", "setting": "HSV-1 infected rats [2]; HSV-1 infected rats, 10 pg AF-16 intranasally twice daily from time of infection, day 6, normal rats 4-8, vehicle 30-45", "value": "8-14 mm Hg"}, {"measurement": "development of neurological dysfunctions", "setting": "HSV-1 infected rats [2]; intranasal treatment twice daily from infection", "value": "prevented the development of neurological dysfunctions"}, {"measurement": "onset and duration of pressure reducing effect", "setting": "HSV-1 infected rats [2]; [4]", "value": "detectable within an hour and lasted for several hours"}, {"measurement": "symptoms of neurological dysfunctions after acute treatment", "setting": "HSV-1 infected rats [2]; [4]", "value": "turned reduced within half an hour and were not demonstrable any longer after one hour"}, {"measurement": "outflow of CSF to nasal mucosa (EBA staining of cribriform lamina)", "setting": "HSV-1 infected rats [3]", "value": "opened the passage for the CSF through the cribriform plate; also recorded: reversed the block of the outflow of CSF"}]}
